The compounds below were run against T1, VCAM-1/α4β1 integrin binding (Homo sapiens, UniProt P05556+P13612) (assay: Assay of antagonistic activity to VCAM-1/α4β1 integrin binding under the existence of blood serum (Jurkat cell adhesion to VCAM-1/Fc)). Conditions: Jurkat cells, recombinant human VCAM-1/Fc, 50% human blood serum.
T1 construct: Jurkat (ATCC TIB-152), known to express integrin α4β1; endogenous in cells; host or cells: Jurkat (ATCC TIB-152)
T1 sequence (P13612 34-1032): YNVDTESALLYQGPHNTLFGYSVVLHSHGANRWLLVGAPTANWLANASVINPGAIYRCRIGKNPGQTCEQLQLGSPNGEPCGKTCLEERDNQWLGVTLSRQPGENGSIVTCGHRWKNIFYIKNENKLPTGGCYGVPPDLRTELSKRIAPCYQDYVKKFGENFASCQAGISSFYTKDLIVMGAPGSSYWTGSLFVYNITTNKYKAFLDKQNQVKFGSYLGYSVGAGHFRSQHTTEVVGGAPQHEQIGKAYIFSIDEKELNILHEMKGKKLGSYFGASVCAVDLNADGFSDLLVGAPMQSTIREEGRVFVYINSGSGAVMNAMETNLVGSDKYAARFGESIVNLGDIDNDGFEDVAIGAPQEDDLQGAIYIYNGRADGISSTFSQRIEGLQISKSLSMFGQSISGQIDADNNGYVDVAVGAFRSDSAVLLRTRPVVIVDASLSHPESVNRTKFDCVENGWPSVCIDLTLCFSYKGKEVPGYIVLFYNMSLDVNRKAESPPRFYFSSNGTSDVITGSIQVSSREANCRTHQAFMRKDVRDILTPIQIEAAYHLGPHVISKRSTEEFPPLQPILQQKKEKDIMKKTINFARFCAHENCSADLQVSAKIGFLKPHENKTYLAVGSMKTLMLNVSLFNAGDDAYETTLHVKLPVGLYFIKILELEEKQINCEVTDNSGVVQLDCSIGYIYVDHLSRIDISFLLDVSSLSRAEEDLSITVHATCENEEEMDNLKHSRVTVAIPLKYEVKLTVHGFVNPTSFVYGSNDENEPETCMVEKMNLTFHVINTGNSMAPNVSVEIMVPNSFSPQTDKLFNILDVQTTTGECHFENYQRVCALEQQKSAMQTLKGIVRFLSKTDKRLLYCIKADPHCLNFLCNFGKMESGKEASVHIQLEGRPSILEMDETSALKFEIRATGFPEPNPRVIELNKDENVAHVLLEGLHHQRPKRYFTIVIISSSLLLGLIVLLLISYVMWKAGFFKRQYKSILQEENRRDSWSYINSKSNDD
T1 sequence (P05556 21-798): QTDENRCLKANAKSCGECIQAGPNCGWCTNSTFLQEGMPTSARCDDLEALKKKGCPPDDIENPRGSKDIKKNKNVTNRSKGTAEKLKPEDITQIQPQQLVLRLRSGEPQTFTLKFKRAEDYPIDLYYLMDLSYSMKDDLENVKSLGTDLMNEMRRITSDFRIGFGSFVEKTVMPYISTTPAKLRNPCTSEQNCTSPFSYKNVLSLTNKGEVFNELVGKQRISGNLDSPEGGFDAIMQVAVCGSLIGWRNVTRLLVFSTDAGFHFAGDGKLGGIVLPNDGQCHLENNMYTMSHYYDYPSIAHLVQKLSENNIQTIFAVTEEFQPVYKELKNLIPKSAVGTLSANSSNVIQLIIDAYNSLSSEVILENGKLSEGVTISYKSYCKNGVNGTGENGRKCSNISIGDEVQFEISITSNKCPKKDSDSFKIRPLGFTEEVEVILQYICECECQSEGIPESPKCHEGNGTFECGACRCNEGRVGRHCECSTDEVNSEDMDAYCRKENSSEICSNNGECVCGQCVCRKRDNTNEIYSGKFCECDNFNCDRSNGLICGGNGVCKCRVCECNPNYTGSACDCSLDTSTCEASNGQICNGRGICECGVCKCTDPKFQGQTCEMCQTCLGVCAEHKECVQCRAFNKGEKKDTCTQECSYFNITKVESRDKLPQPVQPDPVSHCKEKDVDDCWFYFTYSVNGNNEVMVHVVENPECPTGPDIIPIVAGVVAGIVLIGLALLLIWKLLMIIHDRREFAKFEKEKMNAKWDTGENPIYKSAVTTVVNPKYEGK
Assay type: cell-based
Description: Assay of Antagonistic Activity to VCAM-1/α4β1 Integrin Binding Under the Existence of Blood Serum
The capacity of a test substance antagonistic to the binding of cell strain of human T cells, Jurkat (ATCC TIB-152), known to express integrin α4β1, to VCAM-1 was determined.
Fifty μl/well of a solution (500 ng/ml) of recombinant human VCAM-1/Fc (R & D systems) diluted with buffer A (0.1 M NaHCO3, pH 9.6) was added to a 96-well microtiter plate (Nunc Maxisorp). After the incubation at 4° C. overnight and washing once with PBS, a buffer (buffer B) obtained by diluting Block Ace (Snow Brand Milk Products Co., Ltd.) with PBS to ½ concentration was added in an amount of 150 μl/well. After the incubation at room temperature for 2 hours, buffer B was removed and the plate was washed with PBS once.
Jurkat cells were washed with Dulbecco modified Eagle medium (SIGMA, hereinafter referred to as “DMEM”) once. Then, the cells were again suspended in a binding buffer (DMEM containing 20 mM HEPES, 0.1% BSA, 2 mM MnCl2 and 50% human blood serum (Sigma)) to become 1×10^6 cells/mL.
Sixty μl of a test substance of various concentrations obtained by the dilution with the binding buffer was added to a round-bottom, 96-well plate (IWAKI). Immediately thereafter, 60 μl of the Jurkat cells (1×10^6 cells/ml) were added thereto and shaken on a plate shaker (IKA-Labortechnik, IKA-SCHUTTLER MTS-4) at 1000 rpm for 10 seconds. In 120 μL of the cell suspension to which the test substance was added, each 100 μL thereof was transferred on the VCAM-1/Fc-coated plate and incubated in dark place at room temperature for 60 minutes. After the shaking on the plate shaker at 1000 rpm for 30 seconds, the solution was immediately removed. Then, the unbound cells were removed by washing them with PBS once. A buffer C (PBS containing 0.82% Triton X-100) was added to the plate in an amount of 70 μL/well. After the shaking on the plate shaker at 1000 rpm for 5 minutes, the bound Jurkat cells were lysed. After centrifuging the cells on a plate centrifuge (SIGMA 4-15C) at room temperature at 2500 rpm for 5 minutes, 50 μL of supernatant thereof was transferred to a 96-well microtiter plate (Nunc Maxisorp). Each 50 μL of Substrate Buffer (Promega, CytoTox 96 Non-Radioactive Cytotoxicity Assay) was added thereto, shaken on a plate shaker at 1000 rpm for 10 seconds and reacted in dark place at room temperature for 30 minutes. Then, each 50 μL of Stop Solution (Promega, CytoTox 96 Non-Radioactive Cytotoxicity Assay) was added thereto and shaken on a plate shaker at 1000 rpm for 10 seconds. […] The absorbance thus obtained detects an activity of lactate dehydrogenase (LDH) dissolved in the supernatant of each well. Namely, the absorbance is proportional to the number of remaining Jurkat cells on the plate via the binding to VCAM-1. The test was conducted in duplicate and the binding rate of each test substance in various concentrations was determined while the absorbance of the test substance-free well was determined to be 100% and the absorbance of the Jurkat-cell-free well was determined to be 0%. The concentration for the 50% inhibition of binding, IC50, was calculated.
With Cn1c(=O)n(-c2ccc(C[C@H](NC(=O)c3c(Cl)cccc3Cl)C(=O)O)cc2)c(=O)c2cc(CN3CCCC3)ccc21 [Example 56] the IC50 was 13.1 nM. With Cc1nccn1-c1cc2c(cc1F)c(=O)n(-c1ccc(C[C@H](NC(=O)c3c(Cl)cccc3Cl)C(=O)O)cc1)c(=O)n2C [Example 160] the IC50 was 9.4 nM. Compound CNCCc1cc2c(=O)n(-c3ccc(C[C@H](NC(=O)c4c(Cl)cccc4Cl)C(=O)O)cc3)c(=O)n(C)c2cc1F [Example 229, N-(2,6-dichlorobenzoyl)-4-{7-fluoro-1-methyl-6-[2-(methylamino)ethyl]-2,4-dioxo-1,2,3,4-tetrahydroquinazoline-3(2H)-yl}-L-phenylalanine] has an IC50 of 14.7 nM. In the case of CCN(CC)Cc1ccc2c(c1)c(=O)n(-c1ccc(C[C@H](NC(=O)c3c(Cl)cccc3Cl)C(=O)O)cc1)c(=O)n2C [Example 55], the IC50 is reported as 14.2 nM. CCN(CC)CCN(C)c1cc2c(cc1F)c(=O)n(-c1ccc(C[C@H](NC(=O)c3c(Cl)cccc3Cl)C(=O)O)cc1)c(=O)n2C [Example 14] gave an IC50 of 5.8 nM. With Cn1ncc2c(=O)n(-c3ccc(C[C@H](NC(=O)c4c(Cl)cccc4Cl)C(=O)O)cc3)c(=O)n(C)c21 [Example 18] the IC50 was 11.7 nM. Compound CCN(C)c1ccc2c(c1)c(=O)n(-c1ccc(C[C@H](NC(=O)c3c(Cl)cccc3Cl)C(=O)O)cc1)c(=O)n2C [Example 139, N-(2,6-dichlorobenzoyl)-4-[6-ethylmethylamino-1-methyl-2,4-quinazoline-dione-3-yl]-L-phenylalanine] has an IC50 of 8.4 nM. In the case of Cn1c(=O)n(-c2ccc(C[C@H](NC(=O)c3c(Cl)cccc3Cl)C(=O)O)cc2)c(=O)c2cc(C(N)=O)ccc21 [Example 50], the IC50 is reported as 15.4 nM. CNCCCOc1ccc2c(c1)c(=O)n(-c1ccc(C[C@H](NC(=O)c3c(Cl)cccc3Cl)C(=O)O)cc1)c(=O)n2C [Example 226] gave an IC50 of 9.2 nM. CN(C)C1CCN(c2ccc3c(c2)c(=O)n(-c2ccc(C[C@H](NC(=O)c4c(Cl)cccc4Cl)C(=O)O)cc2)c(=O)n3C)C1 (stereo partly drawn) [Example 6] showed an IC50 of 8.9 nM.

What follows are compounds tested on lymphocytes in the peripheral blood (assay: Activity to elevate the number of lymphocytes in the peripheral blood in a rat). Conditions: oral, 3 mg/kg, 1 hour later, criterion 195% or more of vehicle group.
Assay type: in vivo, male Wistar rat
Description: Activity to Elevate the Number of Lymphocytes in the Peripheral Blood in a Rat
The activity of the compounds of the present invention to elevate the number of lymphocytes in the rat was examined.
A dosing solution was prepared by dissolving the compounds of the present invention to dimethylsulfoxide, adding the mixed solution of polyethylene glycol 400: propylene glycol=1:1 and turning it upside and down repeatedly. The final concentration of DMSO was adjusted to become 2.5%.
The dosing solution of a test substance (3 mg/kg, 10 mg/kg or 30 mg/kg) was orally administered to a male Wistar rat (6 to 8 weeks age) in an amount of 4 mL/kg. After the settled time points after the administration, the blood was drawn from its abdominal large vein under anesthesia and stirred in a EDTA-2K coated container for blood collection. Then, the number of lymphocytes in the peripheral blood was determined by an automated comprehensive hematology analyzer (SF-3000, Sysmex). The test was executed in n=5, and the ratio (%) of the number of lymphocytes in the peripheral blood in a test-substance-administered group to that in a vehicle-treated group (a control group) was calculated while the average value of the number of lymphocytes in the peripheral blood in a control group was determined to be 100%.
In the case of COC(=O)[C@H](Cc1ccc(-n2c(=O)c3cncnc3n(C)c2=O)cc1)NC(=O)c1c(Cl)cccc1Cl [Example 129, N-(2,6-dichlorobenzoyl)-4-(1-methyl-2,4-dioxo-1,2,3,4-tetrahydropyrimido[4,5-d]pyrimidine-3(2H)-yl)-L-phenylalanine methylester], the “Elevation of lymphocytes in the peripheral blood, pass/failure” value (shortened to “Elevation of lymphocytes … pass/failure”) is reported as “◯ (pass (criterion measure or more))”.

Same assay, conditions: oral, 10 mg/kg, 6 hours later, criterion 150% or more of vehicle group
For CCNCc1ccc2c(=O)n(-c3ccc(C[C@H](NC(=O)c4c(Cl)cccc4Cl)C(=O)OC(C)C)cc3)c(=O)n(C)c2c1 [Example 156, N-(2,6-dichlorobenzoyl)-4-[7-ethylaminomethyl-1-methyl-2,4-quinazoline-dione-3-yl]-L-phenylalanine isopropylester], the “Elevation of lymphocytes … pass/failure” value was “◯ (pass (criterion measure or more))”. For CNCc1ccc2c(=O)n(-c3ccc(C[C@H](NC(=O)c4c(Cl)cccc4Cl)C(=O)OC4CCCC4)cc3)c(=O)n(C)c2c1 [Example 157, N-(2,6-dichlorobenzoyl)-4-[7-methylaminomethyl-1-methyl-2,4-quinazoline-dione-3-yl]-L-phenylalanine cyclopentylester], the “Elevation of lymphocytes … pass/failure” value was “◯ (pass (criterion measure or more))”. CNCc1ccc2c(=O)n(-c3ccc(C[C@H](NC(=O)c4c(Cl)cccc4Cl)C(=O)OCC(C)C)cc3)c(=O)n(C)c2c1 [Example 158, N-(2,6-dichlorobenzoyl)-4-[7-methylaminomethyl-1-methyl-2,4-quinazoline-dione-3-yl]-L-phenylalanine isobutylester] was tested, and the “Elevation of lymphocytes … pass/failure” value was “◯ (pass (criterion measure or more))”. CCCNCc1ccc2c(=O)n(-c3ccc(C[C@H](NC(=O)c4c(Cl)cccc4Cl)C(=O)OC(C)C)cc3)c(=O)n(C)c2c1 [Example 159, N-(2,6-dichlorobenzoyl)-4-[1-methyl-7-propylaminomethyl-2,4-quinazoline-dione-3-yl]-L-phenylalanine isopropylester] was tested, and the “Elevation of lymphocytes … pass/failure” value was “◯ (pass (criterion measure or more))”.

Same assay, conditions: oral, 30 mg/kg, 12 hours later, criterion 150% or more of vehicle group
For CNCc1cc2c(=O)n(-c3ccc(C[C@H](NC(=O)c4c(Cl)cccc4Cl)C(=O)OC(C)C)cc3)c(=O)n(C)c2cc1F [Example 184, Isopropyl (2S)-2-[(2,6-dichlorobenzoyl)amino]-3-[4-(7-fluoro-1-methyl-6-[(methylamino)methyl]-2,4-dioxo-1,2,3,4-tetrahydro-3(2H)-quinazolinyl)phenyl]propanoate], the “Elevation of lymphocytes … pass/failure” value was “◯ (pass (criterion measure or more))”. In the case of CNCCc1cc2c(=O)n(-c3ccc(C[C@H](NC(=O)c4c(Cl)cccc4Cl)C(=O)OC(C)C)cc3)c(=O)n(C)c2cc1F [Example 228, N-(2,6-dichlorobenzoyl)-4-{7-fluoro-1-methyl-6-[2-(methylamino)ethyl]-2,4-dioxo-1,2,3,4-tetrahydroquinazoline-3(2H)-yl}-L-phenylalanine isopropylester], the “Elevation of lymphocytes … pass/failure” value is reported as “◯ (pass (criterion measure or more))”. For CC(C)OC(=O)[C@H](Cc1ccc(-n2c(=O)c3cc(CO)ccc3n(C)c2=O)cc1)NC(=O)c1c(Cl)cccc1Cl [Example 234, N-(2,6-dichlorobenzoyl)-4-[6-(hydroxymethyl)-1-methyl-2,4-dioxo-1,2,3,4-tetrahydroquinazoline-3-(2H)-yl]-L-phenylalanine isopropylester], the “Elevation of lymphocytes … pass/failure” value was “◯ (pass (criterion measure or more))”. For CC(C)OC(=O)[C@H](Cc1ccc(-n2c(=O)c3cc(OCCN(C)C)ccc3n(C)c2=O)cc1)NC(=O)c1c(Cl)cccc1Cl [Example 155, N-(2,6-dichlorobenzoyl)-4-[6-(2-dimethylaminoethoxy)-1-methyl-2,4-quinazoline-dione-3-yl]-L-phenylalanine isopropylester], the “Elevation of lymphocytes … pass/failure” value was “◯ (pass (criterion measure or more))”. CNCc1ccc2c(c1)c(=O)n(-c1ccc(C[C@H](NC(=O)c3c(C)cccc3Cl)C(=O)OC(C)C)cc1)c(=O)n2C [Example 187, Isopropyl (2S)-2-[(2-chloro-6-methylbenzoyl)amino]-3-[4-(1-methyl-6-[(methylamino)methyl]-2,4-dioxo-1,2,3,4-tetrahydro-3(2H)-quinazolinyl)phenyl]propanoate] was tested, and the “Elevation of lymphocytes … pass/failure” value was “◯ (pass (criterion measure or more))”. In the case of CC(C)OC(=O)[C@H](Cc1ccc(-n2c(=O)c3cc(CN)ccc3n(C)c2=O)cc1)NC(=O)c1c(Cl)cccc1Cl [Example 174, Isopropyl (2S)-3-[4-(6-(aminomethyl)-1-methyl-2,4-dioxo-1,2,3,4-tetrahydro-3(2H)-quinazolinyl)phenyl]-2-[(2,6-dichlorobenzoyl)amino]propanoate], the “Elevation of lymphocytes … pass/failure” value is reported as “◯ (pass (criterion measure or more))”.
